Common to all, as to format: in vivo, mouse
Test [1] relates to 5XFAD AD-Tg mice. Briefly: Flow cytometry of splenocytes in 5XFAD AD-Tg mice. Particulars: weekly-GA, end of 1st week (two GA injections). The protocol:
(§1) Mice were transcardially perfused with PBS, and tissues were treated as previously described (Baruch et al, 2013). Brains were dissected and the different brain regions were removed under a dissecting microscope (Stemi DV4; Zeiss) in PBS, and tissues were dissociated using the gentleMACS™ dissociator (Miltenyi Biotec). Choroid plexus tissues were isolated from the lateral, third and fourth ventricles of the brain, incubated at 37° C. for 45 min in PBS (with Ca^2+/Mg^2+) containing 400 U/ml collagenase type IV (Worthington Biochemical Corporation), and then manually homogenized by pipetting. Spleens were mashed with the plunger of a syringe and treated with ACK (ammonium chloride potassium) lysing buffer to remove erythrocytes. In all cases, samples were stained according to the manufacturers' protocols. All samples were filtered through a 70 μm nylon mesh, and blocked with anti-Fc CD16/32 (1:100; BD Biosciences). For intracellular staining of IFN-γ, the cells were incubated with […] (10 ng/ml; Sigma-Aldrich) and ionomycin (250 ng/ml; Sigma-Aldrich) for 6 h, and Brefeldin-A (10 μg/ml; Sigma-Aldrich) was added for the last 4 h. Intracellular labeling of cytokines was done with BD Cytofix/Cytoperm™ Plus fixation/permeabilization kit (cat. no. 555028). […] Cells were analyzed on an LSRII cytometer (BD Biosciences) using FlowJo software. […]

Test [2] deals with 5XFAD AD-Tg mice. In words: Aβ plaque quantitation (immunohistochemistry) in 5XFAD AD-Tg mice. Particulars: AD-Tg/Foxp3-DTR+ mice, 3 weeks after last DTx injection. The protocol:
Tissue processing and immunohistochemistry were performed on paraffin embedded sectioned mouse (6 μm thick) and human (10 μm thick) brains. For human ICAM-1 staining, primary mouse anti-ICAM (1:20 Abcam; ab2213) antibody was used. Slides were incubated for 10 min with 3% H2O2, and a secondary biotin-conjugated anti-mouse antibody was used, followed by biotin/avidin amplification with Vectastain ABC kit (Vector Laboratories). Subsequently, 3,3′-diaminobenzidine (DAB substrate) (Zytomed kit) was applied; slides were dehydrated and mounted with xylene-based mounting solution. For tissue stainings, mice were transcardially perfused with PBS prior to tissue excision and fixation. CP tissues were isolated under a dissecting microscope (Stemi DV4; Zeiss) from the lateral, third, and fourth ventricles of the brain. For whole mount CP staining, tissues were fixated with 2.5% paraformaldehyde (PFA) for 1 hour at 4° C., and subsequently transferred to PBS containing 0.05% sodium azide. Prior to staining, the dissected tissues were washed with PBS and blocked (20% horse serum, 0.3% Triton X-100, and PBS) for 1 h at room temperature. Whole mount staining with primary antibodies (in PBS containing 2% horse serum and 0.3% Triton X-100), or secondary antibodies, was performed for 1 h at room temperature. Each step was followed by three washes in PBS. The tissues were applied to slides, mounted with Immu-mount (9990402, from Thermo Scientific), and sealed with cover-slips. For staining of sectioned brains, two different tissue preparation protocols (paraffin embedded or microtomed free-floating sections) were applied, as previously described (Baruch et al, 2013; Kunis et al, 2013). […] Microscopic analysis, was performed using a fluorescence microscope (E800; Nikon) or laser-scanning confocal microscope (Carl Zeiss, Inc.). The fluorescence microscope was equipped with a digital camera (DXM 1200F; Nikon), and with either a 20×NA 0.50 or 40×NA 0.75 objective lens (Plan Fluor; Nikon). […] For quantification of staining intensity, total cell and background staining was measured using ImageJ software (NIH), and intensity of specific staining was calculated, as previously described (Burgess et al, 2010). […]
From each brain, 6 μm coronal slices were collected, and eight sections per mouse, from four different pre-determined depths throughout the region of interest (dentate gyrus or cerebral cortex) were immunostained. […]

The subject of a further test is Foxp3+ Tregs. In words: Conditional ablation of Treg by DTx, flow cytometry of blood and spleen. The protocol: as §1
In general terms: Flow cytometry measures light scatter and fluorescence of single cells or particles in a stream.

Regarding Glatiramer acetate [GA], the “splenocyte Foxp3+ Treg levels” value with 5XFAD AD-Tg mice [1] is on record as “reduced”.
Diphtheria toxin [DTx]: in the test with 5XFAD AD-Tg mice [2], the “cerebral Aβ plaque burden in hippocampal dentate gyrus and cerebral cortex (5th layer)” value is listed as “reduced”. Moreover, the “depletion of GFP-expressing FoxP3+CD4+ Treg cells” value in the test on Foxp3+ Tregs (blood and spleen, Foxp3.LuciDTR mice, DTx 8 ng/g i.p. daily for 4 days) is given as more than 99%. The “depletion of Foxp3+ cells” value with Foxp3+ Tregs (splenocytes of AD-Tg/Foxp3-DTR+/− mice, 1 day after last of 4 daily i.p. DTx injections) is given as approximately 99%.

The values above are taken from US11492405B2, “Reducing systemic regulatory t cell levels or activity for treatment of disease and injury of the CNS” (Yeda Research and Development Co. Ltd, priority 2014, dated 2022).
